Measurements published in patent publication US10233152B2, “LSD1 inhibitors” (Mirati Therapeutics, Inc., priority 2015, dated 2019).

Assays:
[1] = target: purified N-terminal truncated human LSD1 enzyme (aa 151-852) (Homo sapiens (Human), UniProt O60341); assay: LSD1 fluorescence coupling enzymatic assay (horseradish peroxidase/Amplex Red); format: biochemical; conditions: 50 nM LSD1, 30 min pre-incubation, histone 3.3 peptide (aa 1-21), 10-point dose-response; read-out: Inhibition of LSD1 Activity IC50
Protocol: Briefly, compounds of the present invention were solubilized in DMSO and a series of 10, three-fold serial dilutions were made for each compound in 15% DMSO. The initial starting concentration for the serial dilutions of each compound was 10 μM.
An aliquot of each serial dilution of test compound was added to a 96 well plate containing 50 nM purified N-truncated LSD1 enzyme (RBC Cat# PDM-11-350), 50 mM Tris-HCl, pH 7.5, 0.05% CHAPS and 1% DMSO in a 10 microliter reaction volume. The plate was pre-incubated at room temperature for 30 min to which 10 M of histone 3.3 peptide (aa 1-21) was added to initiate the enzymatic reaction. The reaction mixture was incubated at room temperature for one hour. […] The IC50 value for each compound was determined from each 10-point dose-response curve using GraphPad Prism 4 software with a sigmodial dose response.

MV4-11 cells = assay: Inhibition of LSD1-mediated cell proliferation, CellTiter Glo luminescence assay; conditions: Homo sapiens, MV4-11, 168 h, read-out: Inhibition of LSD1-mediated Cell Proliferation IC50
Protocol: Inhibition of LSD1-mediated cellular proliferation by compounds of Formula (I) or Formula (II) was measured in a CellTiter Glo luminescence assay (Promega Corp), which determines the number of viable cells by quantitating the amount of ATP, using a BMG LabTech CLARIOStar instrument in accordance with the manufacturer's instructions. […] The plates were incubated at 37° C. for four days and thereafter 50 μl fresh medium containing the same concentration of test compound was added. The plates were incubated for an additional three days (Day 7). A baseline measurement, as described below, was taken for a time zero point at Day 0.
At Day 7, the supernatant was removed by aspiration and the plate was allowed to equilibrate to room temperature (˜15 min). The cells were lysed using 45 μl (30 μl for Day 0) of Cell Titer Glo reagent (Promega Corp). The plates were shaken for two minutes and incubated at room temperature for 30 minutes. The degree of inhibition of cell viability was determined using a spectrophotometric readout by measuring the luminescence at 340 nm and the EC50 concentration for each compound was calculated using Graph Pad Prism 4 software.

| SMILES | IC50 [1] [nM] | IC50 (MV4-11 cells) [nM] |
| --- | --- | --- |
| Brc1ccc(NCCN2CCC(N[C@@H]3C[C@H]3c3ccccc3)CC2)cc1 [Example 33, 1-(2-((4-bromophenyl)amino)ethyl)-N-((1R,2S)-2-phenylcyclopropyl)piperidin-4-amine] | < 1 | < 1 |
| C[N+]1(CCOc2ccc(CC(=O)NS(C)(=O)=O)cc2)CC(CN[C@@H]2C[C@H]2c2ccccc2)C1 (stereo partly drawn) [Example 98] |  | > 1000 |
